The source of these data is patent publication US20220251109A1, “OXAAZAQUINAZOLINE-7(8H)-KETONE COMPOUND, PREPARATION METHOD THEREFOR AND PHARMACEUTICAL APPLICATION THEREOF” (GENFLEET THERAPEUTICS (SHANGHAI) INC., priority 2019, published 2022).

The pIC50 is the IC50 on a negative log10 scale, so that one unit is a factor of ten.

Common to all, as to assay type: cell-based, human
In experiment [1] the test system is NCI-H358 cells (Kras G12C mutation). As to the kind of experiment: Cell proliferation inhibition experiment, 3D model, CellTiter-Glo (NCI-H358). The settings on record: Homo sapiens, NCI-H358, 120 h, NCI-H358, 3D sphere plate, 5 days, 2% FBS. In a few lines: (§1)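 Luminescent ATP read-out (CellTiter-Glo) after 5-day compound treatment gave % inhibition relative to DMSO control and medium blank, fitted four-parameter for IC50. Spheroids were formed overnight in 2% FBS medium from 800 H358 or 400 A549 cells per well; dilutions were 3.16-fold, final DMSO 0.1%.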

Experiment [2] has as its system A549 cells (Kras G12S mutation). Briefly: Cell proliferation inhibition experiment, 3D model, CellTiter-Glo (A549). The settings on record: Homo sapiens, A549, 120 h, A549, 3D sphere plate, 5 days, 2% FBS. In a few lines: as §1
For orientation: In ATP-based viability assays light output follows the ATP content of the culture.

Experiment [3] has as its system p-ERK in MIA PaCa2 cells (Kras G12C mutation). As to the kind of experiment: Cell p-ERK detection experiment (HTRF) in MIA PaCa2 cells. The settings on record: Homo sapiens, MIA PaCa-2, 2 h, compound 2 hours. The gist of the method:
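MIA PaCa2 cells (KRAS G12C) seeded overnight, then treated 2 h with 3.16-fold compound dilutions (0.1% DMSO). Lysates probed with p-ERK HTRF antibodies for 4 h; inhibition relative to DMSO and blank wells, IC50 from four-parameter fit.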
On the technique in general: TR-FRET usually uses a lanthanide donor and a delayed reading to cut background.

Experiment [4] has as its system MIA PaCa-2 cells (Kras G12C mutation). As to the kind of experiment: Cell proliferation inhibition experiment, 3D model, CellTiter-Glo (MIA PaCa-2). The settings on record: Homo sapiens, MIA PaCa-2, 120 h, MIA PaCa-2, 3D sphere plate, 5 days; read-out: MIA-PaCa2 IC50. In a few lines:
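3D spheroid model: 200 MIA PaCa-2 cells per well cultured overnight, then treated with a 3.16-fold compound dilution series (0.1% DMSO) for 5 days. Viability read by CellTiter-Glo luminescence. Inhibition rate normalised to DMSO and medium-blank controls; IC50 from four-parameter fit.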

pIC50: −log10 of the molar value.

`C=CC(=O)N1CCN2c3nc(=O)n(-c4c(C)nc(OC)nc4C(C)C)c4nc(-c5c(O)cccc5F)c(F)c(c34)OC[C@H]2C1` [Compound Z115]: the pIC50 in experiment [1] was 8.30; in experiment [2] it was 4.73; in experiment [3], 7.51; in experiment [4] it was 7.68.

With `C=CC(=O)N1CCN2c3nc(=O)n(-c4c(C)nc(OC)nc4C(C)C)c4nc(-c5ccccc5F)c(Cl)c(c34)OC[C@H]2C1` [Compound Z116], the pIC50 in experiment [1] was 8.52; in experiment [2], 5.05; in experiment [3], 7.59; in experiment [4], 7.59.

Turning to `C=CC(=O)N1CCN2c3nc(=O)n(-c4c(C)c(Cl)nn4C(C)C)c4nc(-c5ccccc5F)c(Cl)c(c34)OC[C@H]2C1` [Compound Z119], the pIC50 in experiment [1] is 7.92; in experiment [2] it was 5.10; in experiment [3] it was 7.23; in experiment [4], 6.95.

Turning to `C=CC(=O)N1CCN2c3nc(=O)n(-c4c(C#N)cnn4C(C)(C)C)c4nc(-c5c(O)cccc5F)c(Cl)c(c34)OC[C@H]2C1` [Compound Z120], the pIC50 in experiment [1] is 7.77; in experiment [2], 4.56; in experiment [3], 6.71; in experiment [4] it was 7.07.

As for `C=CC(=O)N1CCN2c3nc(=O)n(-c4c(C)cc(=O)n(C)c4C(C)C)c4nc(-c5ccccc5F)c(Cl)c(c34)OC[C@H]2C1` [Compound Z121], the pIC50 was 8.52 in experiment [1], below 5.00 in experiment [2], 7.80 in experiment [3] and 8.30 in experiment [4].

Consider `C=CC(=O)N1CCN2c3nc(=O)n(-c4c(CO)ccnc4C(C)C)c4nc(-c5ccccc5F)c(Cl)c(c34)OC[C@H]2C1` [Compound Z122], for which the pIC50 was 8.15 in experiment [1], below 4.52 in experiment [2], 7.00 in experiment [3] and 7.96 in experiment [4].
